Laboratory results: PubChem BioAssay AID179 (DTP/NCI, 2004)
Calls of active or inactive are those of the source.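 The calls were made as follows: active = compounds giving half or more protection of infected cells from virus-caused growth loss, again on retest; inactive = the rest.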

System: CEM cells HIV-1 protection, formazan growth assay
Experiment: NCI AIDS Antiviral Assay
Conditions: for IC50: measured here: growth of uninfected CEM cells
Summary of the method: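 Five concentrations of each compound were applied to infected and uninfected human CEM cells. Protection from HIV-1 was judged from growth measured with a soluble formazan assay.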

SMILES | EC50 [µM] | IC50 [µM] | outcome
CO/N=C(\C(=O)Nc1cncs1)c1csc(NC(c2ccccc2)(c2ccccc2)c2ccccc2)n1 | > 200 | > 200 | 
CCOC(=O)C1(C(=O)OCC)C[C@]23OCCC(=O)[C@H]2[C@H]2C(=O)OC(C)(C)O[C@]23C1 | > 200 | > 200 | 
Cc1ccccc1Nc1nc(-c2ccccc2)nc(N)c1N=O | > 200 | 21.9 | 
CCOC(=O)C(Oc1ccc(OC)c2c1C(=O)CCC2)c1ccccc1 (stereo not given) |  |  | inactive
O=C1C=CC2=[N+]([O-])C(c3ccccc3)(c3ccccc3)C(=Nc3ccccc3)C2=C1 |  |  | inactive
CCNc1nc2c(=O)n(C)c(=O)n(C)c2s1 | > 186 | > 186 | 
COc1ccc(C2SCC(=O)N2c2ccc(-c3ccc(-n4c(-c5ccccc5)nc5ccccc5c4=O)cc3)cc2)cc1OC (stereo not given) | > 200 | 18.2 | 
COC(=O)/C(C#N)=C(\Nc1ccccc1)N1CCOCC1 | > 200 | > 200 | 
CS(=O)(=O)OCCN(CCOS(C)(=O)=O)c1ccc(C=Nc2ccc(-c3csc(COc4ccccc4)n3)cc2)cc1 | > 200 | 0.457 | 
C=C(C)Cn1c(=O)n(CC(=C)C)c(=O)n(CC(=C)C)c1=O | > 200 | 81.3 | 
N#CC1(C#N)C(c2ccccc2)C=CC(c2ccc([N+](=O)[O-])cc2)C1(C#N)C#N (stereo not given) | > 200 | 3.55 | 
CSc1nc(NC2OC(CO)C(O)C(O)C2O)cc(=O)n1C (stereo not given) |  |  | inactive
O=P1(O)c2ccccc2CSCc2ccccc21 | > 324 | > 324 | 
Cc1cc(N=Nc2ccc(Sc3ccc(N=Nc4ccc(O)c(C(=O)O)c4)cc3)cc2)c(N)c(N=Nc2ccc(N=Nc3ccc(S(=O)(=O)O)cc3)cc2)c1N | 5.62 | > 100 | 
COC(=O)CCC(=O)CC(=O)C(=O)Nc1c(Cl)cc([N+](=O)[O-])cc1Cl | > 18.2 | > 18.2 | 
COC(=O)C(C(=O)C(=O)Nc1nc(=S)[nH][nH]1)c1csc(-n2nc(-c3ccccc3)cc2-c2ccccc2)n1 (stereo not given) | > 69.2 | > 69.2 | 
COCC(C)(C)N=CN1CCc2cc(OC)c(OC)cc2C1 | > 813 | > 813 | 
[N-]=[N+]=C(C(=O)CN1CCCC1=O)S(=O)(=O)c1ccccc1 | > 813 | 437 | 

SMILES | EC50 [µM] | IC50 [µM] | outcome
Cc1cc(Cl)ccc1NC(=O)C(=O)Cc1nc2ccccc2o1 | > 11.5 | > 11.5 | 
CC1(C)SC2c3ccccc3C(=O)N2C1C(=O)O (stereo not given) | > 955 | > 955 | 
NC(=O)c1ncn2c1CNC(=O)C2 | > 200 | > 200 | 
CNCCCC1c2ccccc2C=Cc2ccccc21 | > 200 | 37.2 | 
COCC(=O)C1CC[C@@H]2[C@H](CC[C@]3(C)[C@@H](OC(C)=O)CC[C@@H]23)[C@H]1C(=O)OC (stereo not given in full) | > 50.1 | > 50.1 | 
CCC1(CC2CCCN(C)C2)c2ccccc2Sc2ccccc21 (stereo not given) | > 200 | 11 | 
CCCCCCCCCCCCCCCC(=O)OCCOCCOCCOCc1ccccc1 |  |  | inactive
CC(CC(C)(C)[N+](C)(C)C)[N+](C)(C)C (stereo not given) | > 200 | > 200 | 
Cc1cc(N(CCC#N)CCC#N)ccc1N=Nc1ccc(S(N)(=O)=O)cc1 | > 170 | > 170 | 
CSc1nc(NC2OC(COC(C)=O)C(OC(C)=O)C(OC(C)=O)C2OC(C)=O)c2c(n1)OCC2=O (stereo not given) | > 67.6 | > 67.6 | 
[Ni+2].c1nnc(N2CNCCNCN(c3nnc[n-]3)CNCCNC2)[n-]1 | > 100 | 97.7 | 
COP(=O)(OC)C1=c2c(C)noc2=C2C=COC2C1=O (stereo not given) | > 200 | > 200 | 
CCN(CC)C(=O)c1ccc(C)c(N=NN(C)C)c1 | > 501 | 316 | 
Cc1cc2c(cc1Cl)S(=O)(=O)OC(c1ccc([N+](=O)[O-])cc1)=N2 | > 200 | 115 | 
N#Cc1c2ccccc2cn1-c1ccc(F)cc1 | > 200 | 79.4 | 
C#CC(O)/C=C/CCCCCCCCC/C=C/CCCCCCCCC/C=C/C(O)C#C (stereo not given) |  |  | inactive
CNC(=S)N(C)C(=S)Nn1c(=O)c(C)nn(C)c1=S | 18.6 | > 200 | 
